This assay concerns Leishmania major. Put plainly: Antileishmanial activity against promastigote form of Leishmania major after 72 hr by Neubauer counting analysis. The class given is functional, organism-based.

In brackets after ≈: the same amount, converted by molar mass.

`c1ccc2[nH]c(-c3ccncc3)nc2c1`: inhibition was half-maximal at 0.88 µg/mL (≈ 4.51 µM) (IC50). As for `O=[N+]([O-])c1ccc2[nH]c(-c3ccccc3[N+](=O)[O-])nc2c1`, half-maximal inhibition (IC50) was put at 0.73 µg/mL (≈ 2.57 µM).

With `O=[N+]([O-])c1ccc2[nH]c(-c3cccs3)nc2c1`, inhibition was half-maximal at 0.82 µg/mL (≈ 3.34 µM) (IC50). The IC50 values of the last two compounds are within 1.5-fold of each other. In the case of `Cc1ccc(-c2nc3ccccc3[nH]2)o1`, the IC50 amounted to 0.84 µg/mL (≈ 4.24 µM). This IC50 and that of the compound before are within 1.5-fold of each other.

Turning to `CC(C)c1ccc(-c2nc3ccccc3[nH]2)cc1`, it took 0.64 µg/mL (≈ 2.71 µM) to reach half-maximal inhibition (IC50). In the case of `Cc1ccc(-c2nc3cc([N+](=O)[O-])ccc3[nH]2)cc1` it was 0.88 µg/mL (≈ 3.47 µM); in that of `O=[N+]([O-])c1ccc2[nH]c(-c3c[nH]c4ccccc34)nc2c1`, 0.62 µg/mL (≈ 2.23 µM). In turn, `CC(C)c1ccc(-c2nc3cc([N+](=O)[O-])ccc3[nH]2)cc1` yielded an IC50 of 0.8 µg/mL (≈ 2.84 µM). As to `CCCCOc1ccc(-c2nc3ccccc3[nH]2)cc1`, the midpoint of inhibition, the IC50, lay at 0.65 µg/mL (≈ 2.44 µM). Consider `COc1ccc(-c2nc3cc([N+](=O)[O-])ccc3[nH]2)cc1`, for which half-maximal inhibition (IC50) was put at 0.85 µg/mL (≈ 3.16 µM). The IC50 values of the last two compounds are within 1.5-fold of each other. `COc1ccc(-c2nc3ccccc3[nH]2)cc1` gave an IC50 of 0.81 µg/mL (≈ 3.61 µM). This IC50 and that of the compound before are within 1.5-fold of each other. In the case of `c1c[nH]c(-c2nc3ccccc3[nH]2)c1` it was 0.63 µg/mL (≈ 3.44 µM). `Oc1ccc(-c2nc3ccccc3[nH]2)cc1` yielded an IC50 of 0.92 µg/mL (≈ 4.38 µM). Compound `O=[N+]([O-])c1cccc(-c2nc3cc([N+](=O)[O-])ccc3[nH]2)c1` yielded an IC50 of 0.79 µg/mL (≈ 2.78 µM). For `c1cncc(-c2nc3ccccc3[nH]2)c1`, the IC50 worked out at 0.64 µg/mL (≈ 3.28 µM). Compound `O=[N+]([O-])c1ccc2[nH]c(-c3ccc(F)cc3)nc2c1` gave an IC50 of 0.77 µg/mL (≈ 2.99 µM).

Consider `O=[N+]([O-])c1ccccc1-c1nc2ccccc2[nH]1`, for which the IC50 was determined as 0.69 µg/mL (≈ 2.88 µM). `O=[N+]([O-])c1ccc2[nH]c(-c3ccccc3)nc2c1` had an IC50 of 0.8 µg/mL (≈ 3.34 µM). Regarding `c1ccc(-c2nc3ccccc3[nH]2)cc1`, the IC50 came out at 0.68 µg/mL (≈ 3.5 µM). With `O=[N+]([O-])c1ccc2[nH]c(-c3cccnc3)nc2c1`, the IC50 is 0.79 µg/mL (≈ 3.29 µM). This IC50 and that of the compound before are within 1.5-fold of each other. `Cc1ccc(-c2nc3cc([N+](=O)[O-])ccc3[nH]2)o1` gave an IC50 of 0.64 µg/mL (≈ 2.63 µM). Consider `O=[N+]([O-])c1ccc2nc(-c3ccccc3Cl)[nH]c2c1`, for which the IC50 is 0.91 µg/mL (≈ 3.33 µM). In the case of `Clc1ccccc1-c1nc2ccccc2[nH]1`, the midpoint of inhibition, the IC50, lay at 0.78 µg/mL (≈ 3.41 µM). Compound `Fc1ccc(-c2nc3ccccc3[nH]2)cc1` returned an IC50 of 0.79 µg/mL (≈ 3.72 µM). For `COc1cccc(-c2nc3cc([N+](=O)[O-])ccc3[nH]2)c1`, the IC50 turned out to be 0.82 µg/mL (≈ 3.05 µM). `O=[N+]([O-])c1cccc(-c2nc3ccccc3[nH]2)c1` displayed a half-inhibitory concentration (IC50) of 0.82 µg/mL (≈ 3.43 µM). The value for `c1csc(-c2nc3ccccc3[nH]2)c1` was 0.62 µg/mL (≈ 3.1 µM).

`O=[N+]([O-])c1ccc(-c2nc3cc([N+](=O)[O-])ccc3[nH]2)cc1` came in with an IC50 of 0.75 µg/mL (≈ 2.64 µM). For the compound `CCCCOc1ccc(-c2nc3cc([N+](=O)[O-])ccc3[nH]2)cc1`, it took 0.76 µg/mL (≈ 2.44 µM) to reach half-maximal inhibition (IC50). For `Clc1ccc(-c2nc3ccccc3[nH]2)cc1`, the midpoint of inhibition, the IC50, lay at 0.72 µg/mL (≈ 3.15 µM).

Compound `c1ccc2[nH]c(-c3c[nH]c4ccccc34)nc2c1` showed an IC50 of 0.87 µg/mL (≈ 3.73 µM). The IC50 values of the last two compounds are within 1.5-fold of each other. Turning to `O=[N+]([O-])c1ccc2[nH]c(-c3ccc(Cl)cc3)nc2c1`, the 50% inhibitory concentration (IC50) is 0.64 µg/mL (≈ 2.34 µM). `COc1cccc(-c2nc3ccccc3[nH]2)c1` yielded an IC50 of 0.77 µg/mL (≈ 3.43 µM). For the compound `Cc1ccc(-c2nc3ccccc3[nH]2)cc1`, the IC50 was 0.79 µg/mL (≈ 3.79 µM). The value for `O=[N+]([O-])c1ccc2[nH]c(-c3ccccn3)nc2c1` was 0.73 µg/mL (≈ 3.04 µM); that for `O=[N+]([O-])c1ccc2[nH]c(-c3ccc[nH]3)nc2c1` was 0.91 µg/mL (≈ 3.99 µM); that for `O=[N+]([O-])c1ccc(-c2nc3ccccc3[nH]2)cc1` was 0.71 µg/mL (≈ 2.97 µM).

Broadly, the IC50 is the concentration needed to halve the response being measured.

These data come from ChEMBL document CHEMBL3046371, “Benzimidazole derivatives: synthesis, leishmanicidal effectiveness, and molecular docking studies” (Med Chem Res, 2013).
